The target in the assay is T1, Amyloid-beta A4 precursor protein-binding family A member 1 (Rattus norvegicus, UniProt O35430).
T1 sequence (O35430 whole entry): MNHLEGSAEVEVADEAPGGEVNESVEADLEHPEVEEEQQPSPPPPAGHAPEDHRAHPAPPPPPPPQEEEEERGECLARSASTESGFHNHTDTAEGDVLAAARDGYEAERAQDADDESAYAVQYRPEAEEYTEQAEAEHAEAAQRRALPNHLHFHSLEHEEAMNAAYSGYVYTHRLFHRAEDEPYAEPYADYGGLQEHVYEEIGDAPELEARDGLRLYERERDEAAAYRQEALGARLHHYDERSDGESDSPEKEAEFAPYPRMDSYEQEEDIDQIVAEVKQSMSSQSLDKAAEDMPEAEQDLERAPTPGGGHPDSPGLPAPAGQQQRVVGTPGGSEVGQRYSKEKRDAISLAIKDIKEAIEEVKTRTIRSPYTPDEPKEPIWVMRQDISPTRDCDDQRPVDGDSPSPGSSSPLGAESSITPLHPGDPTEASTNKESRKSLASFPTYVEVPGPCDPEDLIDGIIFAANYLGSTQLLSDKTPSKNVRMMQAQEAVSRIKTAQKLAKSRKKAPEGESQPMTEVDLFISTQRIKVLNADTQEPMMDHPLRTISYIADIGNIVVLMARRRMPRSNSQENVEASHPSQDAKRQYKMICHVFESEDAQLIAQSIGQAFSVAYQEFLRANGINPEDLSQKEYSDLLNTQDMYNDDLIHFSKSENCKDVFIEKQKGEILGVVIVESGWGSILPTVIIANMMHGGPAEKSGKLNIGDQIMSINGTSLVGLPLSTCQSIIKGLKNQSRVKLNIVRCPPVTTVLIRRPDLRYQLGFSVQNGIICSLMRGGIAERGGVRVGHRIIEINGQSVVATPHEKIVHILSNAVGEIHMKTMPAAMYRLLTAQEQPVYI
Nature of the assay: disruptors of Mint-PDZ/N-type channel peptide interaction – biochemical, HTRF, set 2, SAR follow-up (AID 434980). Background: TR-FRET usually uses a lanthanide donor and a delayed reading to cut background.

SMILES strings stand for the structures. Values joined by “and” are separate entries in the source; they are usually repeats but may differ in a detail not shown here. Identical values can stand only once.

Broadly, the IC50 is the concentration that inhibits the measured activity by half.

`CC12C=CC(C)(O1)c1c2c(O)n(-c2ccc(Cl)cc2)c1O`: the half-maximal inhibitory concentration (IC50) is > 56.8 µM.

On to `CC12C=CC(C)(O1)c1c2c(O)n(-c2ccc(F)cc2)c1O` [2-(4-fluorophenyl)-4,7-dimethyl-3a,7a-dihydro-octahydro-1H-4,7-epoxyisoindole-1,3-dione], for which the IC50 amounted to 8.89 µM. This lies in the single-digit micromolar range.

As to `CC(=O)Oc1ccc(-n2c(O)c3c(c2O)C2C=CC3O2)cc1` [[4-(1,3-dioxo-3a,4,7,7a-tetrahydro-octahydro-1H-4,7-epoxyisoindol-2-yl)phenyl] acetate], the IC50 is 18.8 µM.

On to `CC12C=CC(C)(O1)c1c2c(O)n(-c2ccccc2)c1O` [4,7-dimethyl-2-phenyl-3a,7a-dihydro-octahydro-1H-4,7-epoxyisoindole-1,3-dione], for which the 50% inhibitory concentration (IC50) is 10.5 µM.

As for `COC(=O)c1cc(-n2c(O)c3c(c2O)C2(C)C=CC3(C)O2)ccc1Cl` [MLS000107828], the IC50 was > 56.8 µM.

Take `CCCc1ccc(CC2=C(C(=O)OCC)C(=O)c3ccccc3C2=O)cc1` [MLS000571357]: the IC50 was found to be 5.7 µM.

Molecule `Cc1cccc(-n2c(O)c3c(c2O)C2(C)C=CC3(C)O2)c1` [4,7-dimethyl-2-(3-methylphenyl)-3a,7a-dihydro-octahydro-1H-4,7-epoxyisoindole-1,3-dione] yielded an IC50 of 8.93 µM.

`CC(=O)Oc1cccc(-n2c(O)c3c(c2O)C2(C)C=CC3(C)O2)c1`: the IC50 was 9.86 µM and 9.63 µM.

`Cc1ccc(-n2c(O)c3c(c2O)C2(C)C=CC3(C)O2)cc1`: the IC50 is > 56.8 µM.

On to `CC12C=CC(C)(O1)c1c2c(O)n(-c2ccc3c(c2)OCO3)c1O`, for which the IC50 is > 56.8 µM.

Molecule `CC(=O)Oc1ccc(-n2c(O)c3c(c2O)C2(C)C=CC3(C)O2)cc1` [MLS000107813] came in with an IC50 of 6.39 µM.
